“And” between values parts separate entries of the source, which are not always exact repeats. Equal values may be shown once. Read-outs that look alike come from different tables or passages of the source. Residues, ends and D or L forms follow the SMILES beside them. *: point of attachment. CoASCH2CO = CC(C)(COP(=O)(O)OP(=O)(O)OC[C@H]1O[C@@H](n2cnc3c(N)ncnc32)[C@H](O)[C@@H]1OP(=O)(O)O)[C@@H](O)C(=O)NCCC(=O)NCCSCC(=O)*
Columns and labels:
p300 [1] = target: T1, p300 (Homo sapiens, UniProt Q09472); test: HAT activity inhibition assay, p300, mixed histones as substrate; format: biochemical
T1 construct: Full length PCAF and p300 proteins were prepared and purified according to previously described methods; made in house
Protocol: (§1) Screening of the peptide CoA conjugate for inhibition of HAT activity of PCAF and p300 was carried out according to standard HAT assay procedures (Ogryzko et al., 1996; Yang et al., 1996; Schiltz et al., 1999) using commercially available mixed calf histone substrates. […] Full length PCAF and p300 proteins were prepared and purified according to previously described methods (Schiltz et al., 1999). HAT inhibition assay procedures were adapted from previously described methods (gryzko et al., 1996; Yang et al., 1996; Schiltz et al., 1999). Briefly, substrate concentrations were 10 μM acetyl-CoA (NEN, ^14C, 0.02 μCi/μL), 33 μg/mL mixed histones (Boehringer); buffer conditions-50 mM Tris-HCl (pH 8), 10 mM sodium butyrate 1 mM phenylmethyl sulfonyl fluoride, 1 mM dithiothreitol, 0.1 mM N,N,N′,N′-ethylenediamine tetraacetic acid and 10% v/v glycerol. Reactions employed purified recombinant p300 and PCAF (Schiltz et al., 1999) at concentrations of 6 nM and 27 nM, respectively. A range of at least 5 inhibitor concentrations were used. Assays were carried out in 0.5 mL plastic tubes at 30° C. and the reaction volumes were 30 μL. Reactions were initiated with the radioactive acetyl-CoA (4 μL) after allowing the enzyme/buffer/histone/inhibitor mixture to equilibrate at 30° C. for 10 min, and reactions quenched after 1 min with 7.5 μL 5×SDS gel load. Mixtures were run out on 15% SDSPAGE visualized with Coomassie blue, dried, and radioactivity quantified by phosphorimage analysis (Molecular Dynamics). In all cases, background acetylation (in the absence of enzyme) was subtracted from the total signal.

PCAF [2] = target: T2, PCAF (Homo sapiens, UniProt Q92831); test: HAT activity inhibition assay, PCAF, mixed histones as substrate; format: biochemical; details: for IC50: [acetyl-CoA]=10 M, [mixed histones]=33 μg/mL, standard errors estimated ±20%
T2 construct: Full length PCAF and p300 proteins were prepared and purified according to previously described methods; made in house
Protocol: as §1

p300 [3] = target: T1, p300; test: HAT inhibition assay, p300, nucleosomes as substrate; format: biochemical; details: inhibitor 20 μM
Protocol: (§2) Full length PCAF and p300 proteins were prepared and purified according to previously described methods (Schiltz et al., 1999). HAT inhibition assay procedures were adapted from previously described methods (gryzko et al., 1996; Yang et al., 1996; Schiltz et al., 1999). […] Reactions employed purified recombinant p300 and PCAF (Schiltz et al., 1999) at concentrations of 6 nM and 27 nM, respectively. A range of at least 5 inhibitor concentrations were used. Assays were carried out in 0.5 mL plastic tubes at 30° C. and the reaction volumes were 30 μL. Reactions were initiated with the radioactive acetyl-CoA (4 μL) after allowing the enzyme/buffer/histone/inhibitor mixture to equilibrate at 30° C. for 10 min, and reactions quenched after 1 min with 7.5 μL 5×SDS gel load. Mixtures were run out on 15% SDSPAGE visualized with Coomassie blue, dried, and radioactivity quantified by phosphorimage analysis (Molecular Dynamics). In all cases, background acetylation (in the absence of enzyme) was subtracted from the total signal.
(§3) 3) FIG. 3. Assessment of p300 and PCAF HAT Activities in p300/PCAF Mixtures. (A) p300 and PCAF HAT activities with mixed histones as substrates.

[4] = system: p300 and acetyl-CoA dependent transcription from chromatin template; test: In vitro chromatin-template transcription dependent on p300 HAT activity; format: biochemical, human
Protocol: (§4) FIG. 4B and C: Transcription from naked DNA and chromatin templates. DNA (28 ng) and freshly assembled chromatin templates (with an equivalent amount of DNA) were incubated with or without activator, Gal4-VP16 (30 ng) for 20 min at 30° C.; 25 ng of baculovirus expressed, highly purified p300 (full length) and 1.5 μM of acetyl-CoA were added as indicated. Following the addition of nuclear extract (source of general transcription factors) and NTPs, transcription reactions were incubated and processed as described.
The chromatin template was reconstituted by incubation of purified proteins (HeLa core histones, NAP1 and rh TopoI) with a 5.4 kb plasmid (p20855G5MLC2AT) that contains a 690 bp promoter region (5 Gal4 binding sites and the adenovirus major late promoter with a G-less cassette) flanked on both sides by the 5 nucleosome positioning sequence from the sea urchin 55 rRNA gene (Cote et al., 1995). Assembled chromatin was structurally characterized by supercoiling and micrococcal nuclease (MNase) assay (data not shown).
Chromatin template for transcription studies were assembled on a ˜5.4 kb plasmid (p2085S G5MLC2AT) with purified human core histones, rh TpopI, and NAP1 as described (T. K. K. et al., manuscript in preparation). Prior to use in the transcription experiment, assembled, chromatin was subjected to supercoiling and Mnase assay. […]

naked DNA transcription = test: In vitro transcription from naked DNA template; format: biochemical; details: 10 μM inhibitor; average of 4 independent experiments
Protocol: as §4
Recombinant His6-tagged nucleosome assembly protein 1 (NAP1) and transcription activator Gal4-VP16 were expressed in E. coli and purified with nitrilloacetic acid-agarose (Qiagen) as specified by the manufacturer. […] In vitro transcription assays were carried out in 50 μL reaction mixtures containing either 28 ng of DNA or an equivalent amount of chromatin.
(A) Outline of the in vitro transcription protocol. (B) and (C) Transcription form naked DNA and chromatin templates. DNA (28 ng) and freshly assembled chromatin templates (with an equivalent amount of DNA) were incubated with or without activator, Gal4-VP16 (30 ng) for 20 min at 30°, 25 ng of baculovirus expressed, highly purified p300 (full length) and 1.5 μM of acetyl-CoA were added as indicated. […]

PCAF [5] = target: T2, PCAF; format: biochemical; details: nucleosomes as substrate, inhibitor 20 μM
Protocol: as §2, §3

[6] = [acetyl-CoA]=10 M, [mixed histones]=33 μg/mL, standard errors estimated ±20%, read-out: IC50 with p300
[7] = mixed histones, individual enzyme, inhibitor 20 μM

T2 sequence (Q92831 whole entry): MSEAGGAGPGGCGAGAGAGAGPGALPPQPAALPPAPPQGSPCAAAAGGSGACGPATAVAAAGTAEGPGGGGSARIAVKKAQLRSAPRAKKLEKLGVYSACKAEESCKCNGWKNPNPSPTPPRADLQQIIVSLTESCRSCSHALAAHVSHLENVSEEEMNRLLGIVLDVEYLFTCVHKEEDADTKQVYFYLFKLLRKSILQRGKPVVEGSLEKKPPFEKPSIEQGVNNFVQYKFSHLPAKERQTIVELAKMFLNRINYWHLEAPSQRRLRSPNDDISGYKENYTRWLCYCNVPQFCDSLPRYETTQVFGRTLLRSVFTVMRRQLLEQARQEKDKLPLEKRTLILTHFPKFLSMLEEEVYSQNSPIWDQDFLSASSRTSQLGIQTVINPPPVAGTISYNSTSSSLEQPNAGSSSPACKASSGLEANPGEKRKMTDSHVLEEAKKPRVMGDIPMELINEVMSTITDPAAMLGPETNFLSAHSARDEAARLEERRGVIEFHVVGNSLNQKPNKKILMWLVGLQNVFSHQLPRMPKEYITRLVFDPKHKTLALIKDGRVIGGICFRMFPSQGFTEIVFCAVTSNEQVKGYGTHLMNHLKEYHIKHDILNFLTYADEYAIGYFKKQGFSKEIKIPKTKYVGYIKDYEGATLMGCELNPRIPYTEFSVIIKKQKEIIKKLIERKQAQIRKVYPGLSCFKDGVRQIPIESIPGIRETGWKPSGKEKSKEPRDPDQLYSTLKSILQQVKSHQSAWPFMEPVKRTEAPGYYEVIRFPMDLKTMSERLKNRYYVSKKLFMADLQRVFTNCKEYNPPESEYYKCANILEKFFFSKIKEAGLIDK
T1 sequence (Q09472 whole entry): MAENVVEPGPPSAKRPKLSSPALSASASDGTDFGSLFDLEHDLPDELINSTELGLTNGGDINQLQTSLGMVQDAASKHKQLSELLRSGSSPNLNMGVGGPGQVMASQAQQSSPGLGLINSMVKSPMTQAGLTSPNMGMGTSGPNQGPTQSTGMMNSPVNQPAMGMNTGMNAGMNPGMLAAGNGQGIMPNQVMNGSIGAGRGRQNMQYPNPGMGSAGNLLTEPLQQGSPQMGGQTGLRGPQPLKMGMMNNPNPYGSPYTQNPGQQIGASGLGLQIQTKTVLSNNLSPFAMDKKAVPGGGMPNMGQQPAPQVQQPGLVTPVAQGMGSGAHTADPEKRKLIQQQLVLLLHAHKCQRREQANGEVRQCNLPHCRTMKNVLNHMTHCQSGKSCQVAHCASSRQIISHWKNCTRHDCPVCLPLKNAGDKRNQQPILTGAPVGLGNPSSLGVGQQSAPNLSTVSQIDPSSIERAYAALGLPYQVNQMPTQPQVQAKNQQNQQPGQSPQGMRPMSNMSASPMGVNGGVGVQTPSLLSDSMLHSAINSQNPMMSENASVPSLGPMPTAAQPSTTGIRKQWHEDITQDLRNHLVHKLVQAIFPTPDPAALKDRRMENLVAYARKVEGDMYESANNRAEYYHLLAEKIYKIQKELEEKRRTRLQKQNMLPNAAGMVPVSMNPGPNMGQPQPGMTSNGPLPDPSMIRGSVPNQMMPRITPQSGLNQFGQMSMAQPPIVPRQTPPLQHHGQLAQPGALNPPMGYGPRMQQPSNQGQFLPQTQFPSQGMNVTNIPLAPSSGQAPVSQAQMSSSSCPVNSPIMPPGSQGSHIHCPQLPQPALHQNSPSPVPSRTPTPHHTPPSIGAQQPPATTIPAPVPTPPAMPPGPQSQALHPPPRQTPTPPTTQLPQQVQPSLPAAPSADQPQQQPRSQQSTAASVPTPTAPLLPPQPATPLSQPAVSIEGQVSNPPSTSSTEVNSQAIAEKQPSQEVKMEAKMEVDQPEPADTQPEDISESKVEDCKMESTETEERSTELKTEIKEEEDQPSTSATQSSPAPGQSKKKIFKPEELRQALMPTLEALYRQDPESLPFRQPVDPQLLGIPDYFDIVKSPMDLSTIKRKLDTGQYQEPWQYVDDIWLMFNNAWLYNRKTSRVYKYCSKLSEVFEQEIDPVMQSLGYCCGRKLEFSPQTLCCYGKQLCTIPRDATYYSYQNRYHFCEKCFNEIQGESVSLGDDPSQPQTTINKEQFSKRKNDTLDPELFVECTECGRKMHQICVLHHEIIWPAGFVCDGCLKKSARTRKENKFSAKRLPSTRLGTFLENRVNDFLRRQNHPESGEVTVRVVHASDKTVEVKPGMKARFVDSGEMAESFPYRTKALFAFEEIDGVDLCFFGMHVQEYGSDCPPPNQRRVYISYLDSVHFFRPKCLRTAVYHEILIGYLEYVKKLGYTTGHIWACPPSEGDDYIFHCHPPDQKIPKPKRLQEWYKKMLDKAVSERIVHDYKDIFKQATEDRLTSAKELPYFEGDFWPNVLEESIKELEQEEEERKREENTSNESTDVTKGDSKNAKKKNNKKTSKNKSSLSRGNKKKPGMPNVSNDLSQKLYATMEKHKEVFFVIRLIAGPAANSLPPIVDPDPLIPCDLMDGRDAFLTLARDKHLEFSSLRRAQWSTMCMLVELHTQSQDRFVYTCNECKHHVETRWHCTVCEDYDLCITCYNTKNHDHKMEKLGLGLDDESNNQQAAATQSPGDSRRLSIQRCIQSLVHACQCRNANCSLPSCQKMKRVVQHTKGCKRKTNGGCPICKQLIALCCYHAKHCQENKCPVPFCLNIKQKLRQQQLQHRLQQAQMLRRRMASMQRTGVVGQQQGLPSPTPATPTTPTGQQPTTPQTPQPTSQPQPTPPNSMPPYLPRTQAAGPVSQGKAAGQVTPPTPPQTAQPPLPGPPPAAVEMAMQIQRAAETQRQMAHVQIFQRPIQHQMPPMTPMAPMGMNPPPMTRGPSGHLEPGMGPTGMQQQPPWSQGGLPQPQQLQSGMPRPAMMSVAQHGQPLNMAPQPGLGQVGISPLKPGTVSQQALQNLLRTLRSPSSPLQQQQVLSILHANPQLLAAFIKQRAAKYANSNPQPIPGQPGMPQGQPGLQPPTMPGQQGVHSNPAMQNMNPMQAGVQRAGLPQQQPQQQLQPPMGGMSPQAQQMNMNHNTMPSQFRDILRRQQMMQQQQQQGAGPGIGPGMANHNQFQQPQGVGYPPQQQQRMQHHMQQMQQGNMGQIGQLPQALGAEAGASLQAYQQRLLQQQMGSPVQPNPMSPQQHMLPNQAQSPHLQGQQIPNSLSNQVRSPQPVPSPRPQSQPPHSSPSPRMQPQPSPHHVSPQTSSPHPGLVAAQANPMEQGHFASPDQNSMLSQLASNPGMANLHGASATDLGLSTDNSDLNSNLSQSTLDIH

## CC(C)(COP(=O)(O)OP(=O)(O)OC[C@H]1O[C@@H](n2cnc3c(N)ncnc32)[C@H](O)[C@@H]1OP(=O)(O)O)[C@@H](O)C(=O)NCCC(=O)NCCS [CoASH, reference compound]
p300 [1]; mixed histones
  inhibition of p300 HAT activity, in words: Neither the H3-20 peptide (which lacked CoA attachment) nor CoASH itself were potent HAT inhibitors
PCAF [2]
  IC50: > 20000 nM
PCAF [2]; mixed histones
  inhibition of PCAF HAT activity, in words: Neither the H3-20 peptide (which lacked CoA attachment) nor CoASH itself were potent HAT inhibitors

## CC(=O)NCC(=O)NCC(=O)N[C@@H](CCCCNC(=O)CSCCNC(=O)CCNC(=O)[C@H](O)C(C)(C)COP(=O)(O)OP(=O)(O)OC[C@H]1O[C@@H](n2cnc3c(N)ncnc32)[C@H](O)[C@@H]1OP(=O)(O)O)C(=O)N[C@@H](C)C(=O)N1CCC[C@H]1C(=O)N[C@@H](CCCNC(=N)N)C(=O)N[C@@H](CCCCN)C(N)=O [Compound H3-CoA-7] (Ac-GGK(CoASCH2CO)APRK-NH2)
p300 [1]; [6]
  IC50: > 30000 nM
PCAF [2]
  IC50: > 20000 nM
PCAF [2]; mixed histones
  inhibition of PCAF HAT activity, in words: not achieved

## CC(=O)N[C@@H](CCCCNC(=O)CSCCNC(=O)CCNC(=O)[C@H](O)C(C)(C)COP(=O)(O)OP(=O)(O)OC[C@H]1O[C@@H](n2cnc3c(N)ncnc32)[C@H](O)[C@@H]1OP(=O)(O)O)C(N)=O [Lys-CoA]
p300 [3]
  p300 inhibition (nucleosome acetylation): greater than 90%
[4]; p300-PCAF mixtures, data not shown
  transcriptional activation from chromatin template in the presence of p300-PCAF mixtures: abolished transcriptional activation
[4]; p300 preincubated with 10 μM inhibitor
  inhibition of p300 and acetyl-CoA dependent transcription activation from the chromatin template: completely abolished
p300 [1]
  selectivity in blocking p300 HAT activity (versus PCAF): ~200 fold
p300 [1]; [6]
  IC50: ~500 nM and 500 nM
p300 [1]; mixed calf histone substrates, read-out: IC50 of p300 acetyltransferase activity
  IC50: ~500 nM
p300 [1]; [7]
  p300 HAT activity blocked: greater than 90%
PCAF [2]
  IC50: ~200000 nM
PCAF [2]; [7]
  inhibition with PCAF: less than 10%
Naked DNA transcription
  inhibition of naked DNA transcription: 15-20%
PCAF [5]
  PCAF inhibition (nucleosome acetylation): less than 10%
